Here are results for 23 molecules from patent publication US12358948B2, “Neurotensinergic agonists and methods of using same preventing or treating pain” (priority 2019, dated 2025).

*1 amine or outer side, *2 acyl side, *3 side chain or, on linkers, in order; H or OH if unused. Where a SMILES comes first, the peptide text is derived from it. Bridges are numbered along the chain shown (N, C = ends). [ ]: non-standard residue; d: D form. ξ: configuration not given here. ξαMeNle(6-ylidene) = CC(CCCC=[*:3])(N[*:1])C(=O)[*:2]; Ala(E-styryl) = N[C@@H](C/C=C/c1ccccc1)C(=O)O; X2 = O=C([C@H](Cc1cc(F)c(F)cc1F)N[*:1])[*:2]; Phe(4-Cl) = N[C@@H](Cc1ccc(Cl)cc1)C(=O)O; 2Nal = N[C@@H](Cc1ccc2ccccc2c1)C(=O)O; hTyr = N[C@@H](CCc1ccc(O)cc1)C(=O)O; hCha = N[C@@H](CCC1CCCCC1)C(=O)O; Hpg = N[C@H](C(=O)O)c1ccc(O)cc1; Tic = O=C(O)[C@@H]1Cc2ccccc2CN1; dAllylGly = C=CC[C@@H](N)C(=O)O; Cha = N[C@@H](CC1CCCCC1)C(=O)O; AllylGly = C=CC[C@H](N)C(=O)O; Aic = NC1(C(=O)O)Cc2ccccc2C1; Orn = NCCC[C@H](N)C(=O)O; Nva = CCC[C@H](N)C(=O)O; Dap = NC[C@H](N)C(=O)O

One test concerns the target T1, hNTS2 receptor (Homo sapiens, UniProt O95665).
T1 construct: membranes prepared from them
Briefly: Competitive radioligand binding assay on the hNTS2 receptor. Conditions: for IC50: displacement of 125I-[Tyr3]-NT, membranes of 1321N1 cells expressing hNTS2, read-out: IC50 NTS2 (converted); for Selectivity: ratio IC50 for NTS1 : IC50 for NTS2. The gist of the method: (§1)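 Membranes from CHO-K1 cells expressing hNTS1 (15 µg, […] ¹²⁵I-[Tyr³]-NT) or 1321N1 cells expressing hNTS2 (50 µg, […] radioligand) were incubated with analogues at 10⁻¹¹–10⁻⁴ M for 60 min at 25 °C in Tris-HCl pH 7.5/0.2% BSA. Filtration and γ-counting followed; nonspecific binding was defined with 10⁻⁵ M NT(8-13), and IC50 was obtained by one-site fit.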
Background: In a radioligand displacement assay an active substance lowers the binding of a labelled ligand.

A further test concerns the target T2, hNTS1 receptor (Homo sapiens, UniProt P30989).
T2 construct: membranes prepared from them
Briefly: Competitive radioligand binding assay on the hNTS1 receptor. The note with it: displacement of 125I-[Tyr3]-NT, membranes of CHO-K1 cells expressing hNTS1; read-out: IC50 NTS1. The essentials:
as §1

T2 sequence (P30989 whole entry): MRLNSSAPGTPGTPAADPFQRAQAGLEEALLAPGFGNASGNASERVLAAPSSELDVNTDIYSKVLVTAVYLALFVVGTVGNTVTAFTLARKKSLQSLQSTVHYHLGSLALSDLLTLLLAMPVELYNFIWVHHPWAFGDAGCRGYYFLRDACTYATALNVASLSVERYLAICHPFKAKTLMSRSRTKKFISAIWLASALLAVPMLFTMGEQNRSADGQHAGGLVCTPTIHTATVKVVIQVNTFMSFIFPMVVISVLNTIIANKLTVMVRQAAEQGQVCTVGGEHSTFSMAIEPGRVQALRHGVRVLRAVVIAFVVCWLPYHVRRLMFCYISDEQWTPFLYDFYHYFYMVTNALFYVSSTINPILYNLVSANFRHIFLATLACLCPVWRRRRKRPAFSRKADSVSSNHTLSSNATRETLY
T1 sequence (O95665 whole entry): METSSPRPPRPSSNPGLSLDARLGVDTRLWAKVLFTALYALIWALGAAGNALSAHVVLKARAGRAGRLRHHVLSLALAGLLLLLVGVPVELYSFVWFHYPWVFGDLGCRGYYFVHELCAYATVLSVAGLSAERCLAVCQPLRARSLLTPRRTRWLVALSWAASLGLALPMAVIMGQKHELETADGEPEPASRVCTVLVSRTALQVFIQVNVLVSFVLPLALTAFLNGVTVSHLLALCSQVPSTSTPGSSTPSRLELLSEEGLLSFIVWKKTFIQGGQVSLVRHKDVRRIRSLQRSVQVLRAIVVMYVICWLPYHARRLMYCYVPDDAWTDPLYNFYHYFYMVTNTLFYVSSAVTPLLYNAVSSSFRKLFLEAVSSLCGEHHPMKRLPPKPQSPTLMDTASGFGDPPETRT

As to `CC(C)C[C@H](NC(=O)[C@H](Cc1ccc2ccccc2c1)NC(=O)[C@@H]1CC=CC[C@H](N)C(=O)N[C@@H](CCCCN)C(=O)N[C@@H](CCCCN)C(=O)N1)C(=O)O` [compound 112, c[G(All)KKG(All)]A(naphtyl)L] (H-[AllylGly]KK[AllylGly][2Nal]L-OH; staple 1-4), at hNTS2 receptor, the concentration for half-maximal inhibition (IC50) (in general, the midpoint of a concentration-inhibition curve) is 0.0836 µM and the Selectivity is listed as over 1196. Further, the IC50 on hNTS1 receptor was over 100 µM.
The corresponding values for `CC(C)C[C@H](NC(=O)[C@H](Cc1ccc(Cl)cc1)NC(=O)[C@@H]1CC=CC[C@H](N)C(=O)N[C@@H](CCCCN)C(=O)N[C@@H](CCCCN)C(=O)N1)C(=O)O` [compound 114, c[G(All)KKG(All)]F(4-chloro)L] (H-[AllylGly]KK[AllylGly][Phe(4-Cl)]L-OH; staple 1-4) are 0.0406 µM, over 2466 and over 100 µM.
Consider `CC(C)C[C@H](NC(=O)[C@H](CCc1ccc(O)cc1)NC(=O)[C@@H]1CC=CC[C@H](N)C(=O)N[C@@H](CCCCN)C(=O)N[C@@H](CCCCN)C(=O)N1)C(=O)O` [compound 126, c[G(All)KKG(All)]homoYL] (H-[AllylGly]KK[AllylGly][hTyr]L-OH; staple 1-4), for which the IC50 is 0.0817 µM at hNTS2 receptor and over 100 µM on hNTS1 receptor. Moreover, the Selectivity at hNTS2 receptor is given as 1224.
The corresponding values for `CC(C)[C@H](NC(=O)[C@H](Cc1ccc(O)cc1)NC(=O)[C@@H]1CC=CC[C@H](N)C(=O)N[C@@H](CCCCN)C(=O)N[C@@H](CCCCN)C(=O)N1)C(=O)O` [compound 33, c[G(All)KKG(All)]YV] (H-[AllylGly]KK[AllylGly]YV-OH; staple 1-4) are 79.8 µM, over 100 µM and over 1.25.
In the case of `CC(C)C[C@H](NC(=O)[C@H](Cc1ccc(O)cc1)NC(=O)C1(C)CCCC=CCCCC(C)(N)C(=O)N[C@@H](CCCCN)C(=O)N[C@@H](CCCCN)C(=O)N1)C(=O)O` (stereo partly drawn) [compound 93, c[G(alpha-Me-(4-Pentenyl))KKG*(alpha-Me(4-Pentenyl))]YL] (H-[ξαMeNle(6-ylidene)]KK[ξαMeNle(6-ylidene)]YL-OH; staple 1-4), the IC50 at hNTS2 receptor was 0.0344 µM; on hNTS1 receptor, over 100 µM. For the same molecule, on hNTS2 receptor, the Selectivity is listed as over 2907.
Consider `CC(C)C[C@H](NC(=O)[C@@H]1Cc2ccccc2CN1C(=O)[C@@H]1CC=CC[C@H](N)C(=O)N[C@@H](CCCCN)C(=O)N[C@@H](CCCCN)C(=O)N1)C(=O)O` [compound 167, c[G(All)KKG(All)]G(Tic)*L*] (H-[AllylGly]KK[AllylGly][Tic]L-OH; staple 1-4), for which, on hNTS2 receptor, the 50% inhibitory concentration (IC50) is 0.0962 µM and the Selectivity is on record as 1040. On hNTS1 receptor, the IC50 was over 100 µM.
As for `CC(C)C[C@H](NC(=O)[C@H](Cc1ccc(O)cc1)NC(=O)[C@@H]1CC=CC[C@H](N)C(=O)NCC(=O)N[C@@H](CCCCN)C(=O)N1)C(=O)O` [compound 87, c[G(All)GKG(All)]YL] (H-[AllylGly]GK[AllylGly]YL-OH; staple 1-4), on hNTS2 receptor, the IC50 was 0.516 µM and the Selectivity was over 194. In addition, the IC50 at hNTS1 receptor was over 100 µM.
The like results for `CC(C)C[C@H](NC(=O)[C@H](C/C=C/c1ccccc1)NC(=O)[C@@H]1CC=CC[C@H](N)C(=O)N[C@@H](CCCCN)C(=O)N[C@@H](CCCCN)C(=O)N1)C(=O)O` [compound 161, c[G(All)KKG(All)]A(styryl) L] (H-[AllylGly]KK[AllylGly][Ala(E-styryl)]L-OH; staple 1-4) were, in that order, 0.131 µM, 766 and over 100 µM.
Regarding `CC(C)C[C@H](NC(=O)[C@H](Cc1ccc(O)cc1)NC(=O)[C@@H]1CC(=O)NCCCC[C@H](N)C(=O)N[C@@H](CCCCN)C(=O)N[C@@H](CCCCN)C(=O)N1)C(=O)O` [compound 97, c[KKKD]YL] (H-KKKDYL-OH; lactam 1-4), on hNTS2 receptor, the IC50 was 1.02 µM and the Selectivity was over 98.4. Also, the IC50 on hNTS1 receptor is over 100 µM.
The like results for `CC(C)C[C@H](NC(=O)[C@H](Cc1ccc(O)cc1)NC(=O)[C@@H]1CC=CC[C@H](N)C(=O)N[C@@H](CCCCN)C(=O)NCC(=O)N1)C(=O)O` [compound 59, c[G(All)KGG(All)]YL] (H-[AllylGly]KG[AllylGly]YL-OH; staple 1-4) were, in that order, 2.13 µM, over 47 and over 100 µM.
The corresponding values for `NCCCC[C@@H]1NC(=O)[C@H](CCCCN)NC(=O)[C@@H](N)CC=CC[C@@H](C(=O)N[C@@H](Cc2ccc(O)cc2)C(=O)N[C@@H](Cc2cc(F)c(F)cc2F)C(=O)O)NC1=O` [compound 63, c[G(All)KKG(All)]YF(2,4,5-trifluoro)] (H-[AllylGly]KK[AllylGly]Y[X2]-OH; staple 1-4) are 0.366 µM, over 273 and over 100 µM.
Consider `CC(C)C[C@H](NC(=O)[C@@H](NC(=O)[C@@H]1CC=CC[C@H](N)C(=O)N[C@@H](CCCCN)C(=O)N[C@@H](CCCCN)C(=O)N1)c1ccc(O)cc1)C(=O)O` [compound 125] (H-[AllylGly]KK[AllylGly][Hpg]L-OH; staple 1-4), for which, on hNTS2 receptor, the IC50 was 1.8 µM and the Selectivity was 56. In addition, at hNTS1 receptor, the IC50 is over 100 µM.
As for `NCCCC[C@@H]1NC(=O)[C@H](CCCCN)NC(=O)[C@@H](N)CC=CC[C@@H](C(=O)N[C@@H](Cc2ccc(O)cc2)C(=O)N[C@@H](CC2CCCCC2)C(=O)O)NC1=O` [compound 31, c[G(All)KKG(All)]YA(Ch)] (H-[AllylGly]KK[AllylGly]Y[Cha]-OH; staple 1-4), the IC50 on hNTS2 receptor was 0.00867 µM; at hNTS1 receptor, over 100 µM. Besides, the Selectivity at hNTS2 receptor is over 11534.
The corresponding values for `CC(C)C[C@H](NC(=O)[C@H](Cc1ccc(O)cc1)NC(=O)[C@@H]1CC=CC[C@@H](N)C(=O)N[C@@H](CCCCN)C(=O)N[C@@H](CCCCN)C(=O)N1)C(=O)O` [compound 41, c[G*(All)KKG(All)]YL] (H-[dAllylGly]KK[AllylGly]YL-OH; staple 1-4) are 0.113 µM, over 100 µM and over 889.
The like results for `NCCCC[C@@H]1NC(=O)CCC=CC[C@@H](C(=O)N[C@@H](Cc2ccc(O)cc2)C(=O)N[C@@H](CC2CCCC2)C(=O)O)NC(=O)[C@H](CCCCN)NC1=O` [compound 129, c[pK(pentenoyl)KG(All)]Y A(cyclopentyl)] were, in that order, 0.0139 µM, over 100 µM and 7194.
`CCC[C@H](NC(=O)[C@H](Cc1ccc(O)cc1)NC(=O)[C@@H]1CC=CC[C@H](N)C(=O)N[C@@H](CCCCN)C(=O)N[C@@H](CCCCN)C(=O)N1)C(=O)O` [compound 29, c[G(All)KKG(All)]YNva] (H-[AllylGly]KK[AllylGly]Y[Nva]-OH; staple 1-4): on hNTS2 receptor, the IC50 was 3.3 µM and the Selectivity is over 30.3. Moreover, on hNTS1 receptor, the IC50 is over 100 µM.
The like results for `CC(C)C[C@H](NC(=O)[C@H](Cc1ccc(O)cc1)NC(=O)[C@@H]1CCC(=O)NCCCC[C@H](N)C(=O)N[C@@H](CCCCN)C(=O)N[C@@H](CCCCN)C(=O)N1)C(=O)O` [compound 101, c[KKKE]YL] (H-KKKEYL-OH; lactam 1-4) were, in that order, 0.889 µM, over 111 and over 100 µM.
The corresponding values for `CC(C)C[C@H](NC(=O)[C@H](Cc1ccc(O)cc1)NC(=O)[C@@H]1CC(=O)NC[C@H](N)C(=O)N[C@@H](CCCCN)C(=O)N[C@@H](CCCCN)C(=O)N1)C(=O)O` [compound 94, c[DapKKD]YL] (H-[Dap]KKDYL-OH; lactam 1-4) are 22.8 µM, over 4.4 and over 100 µM.
The corresponding values for `CC(C)C[C@H](NC(=O)[C@H](Cc1ccc(O)cc1)NC(=O)[C@H]1CC=CC[C@H](N)C(=O)N[C@@H](CCCCN)C(=O)N[C@@H](CCCCN)C(=O)N1)C(=O)O` [compound 40, c[G(All)KKG*(All)]YL] (H-[AllylGly]KK[dAllylGly]YL-OH; staple 1-4) are 1.2 µM, over 85 and over 100 µM.
On to `CC(C)C[C@H](NC(=O)[C@H](Cc1ccc(O)cc1)NC(=O)[C@@H]1CC=CC[C@H](N)C(=O)N[C@@H](CCCCN)C(=O)N[C@@H](CN)C(=O)N1)C(=O)O` [compound 53, c[G(All)KDapG(All)]YL] (H-[AllylGly]K[Dap][AllylGly]YL-OH; staple 1-4), for which, on hNTS2 receptor, the IC50 was 0.204 µM and the Selectivity was over 490.9. On hNTS1 receptor, the IC50 is over 100 µM.
The corresponding values for `NCCCC[C@@H]1NC(=O)[C@H](CCCCN)NC(=O)[C@@H](N)CC=CC[C@@H](C(=O)N[C@@H](Cc2ccc(O)cc2)C(=O)N[C@@H](CCC2CCCCC2)C(=O)O)NC1=O` [compound 64, c[G(All)KKG(All)]YA(homoChA)] (H-[AllylGly]KK[AllylGly]Y[hCha]-OH; staple 1-4) are 0.00774 µM, >12 920 and over 100 µM.
The like results for `CC(C)C[C@H](NC(=O)C1(NC(=O)[C@@H]2CC=CC[C@H](N)C(=O)N[C@@H](CCCCN)C(=O)N[C@@H](CCCCN)C(=O)N2)Cc2ccccc2C1)C(=O)O` [compound 164, c[G(All)KKG(All)]G(indanyl)L] (H-[AllylGly]KK[AllylGly][Aic]L-OH; staple 1-4) were, in that order, 10 µM, 10 and over 100 µM.
The like results for `CC(C)C[C@H](NC(=O)[C@H](Cc1ccc(O)cc1)NC(=O)[C@@H]1CC=CC[C@H](N)C(=O)N[C@@H](CCCN)C(=O)N[C@@H](CCCCN)C(=O)N1)C(=O)O` [compound 79, c[G(All)OrnKG(All)]YL] (H-[AllylGly][Orn]K[AllylGly]YL-OH; staple 1-4) were, in that order, 0.0775 µM, over 1291 and over 100 µM.
